# US20080194483A1, “GLP-1 (9-36) methods and compositions” (priority 2003, published 2008)
# Where no end group is shown, it is not given here.
# How the values were obtained:
# [1] = test system: human aortic endothelial cells (HAEC); assay: Nutrient-induced ROS (CM-H2DCFDA) in human aortic endothelial cells; type: cell-based
# Protocol: Cell Culture conditions. Confluent HAECs (passage 1-6) were maintained in EGM2 media containing 0.4% FBS plus growth factor additives. Cells were incubated for varying times with either 5 mM glucose, 12 mM glucose, or 5 mM glucose plus 800 μM oleic acid and 1 mM albumin. In other experiments, cells were incubated with 5 mM glucose, 12 mM glucose, or 5 mM glucose plus 800 μM oleic acid and 1 mM albumin, alone, or with either 100 pM GLP-1 (7-36 NH2), GLP-1 (7-36 NH2)+ the DPPIV inhibitor H-lys(4-nito-Z)-pyrrolidide and the neutral endopeptidase inhibitor phosphoramidon, GLP-1 (9-36 NH2), GLP-1 (9-36 NH2) plus the GLP-1 receptor blocker […], and with GLP-1 (9-36 NH2) with 100× GLP-1 (7-36 NH2) and both DPPIV and NEP inhibitors. Cells were pre incubated for four hrs in cycloheximide (5 ug/ml). In experiments using clotrimazole cells were preincubated for 2.5 hrs in serum free media. Reactive oxygen species quantification. Cells were plated in 96-well cell culture plates. Intracellular reactive oxygen species were detected using the fluorescent probe CM-H2DCFDA (Molecular Probes). Cells were loaded with 10 μM CM-H2DCFDA, incubated for 45 min at 37° C., and analyzed with an HTS 7000 Bio Assay Fluorescent Plate Reader (Perkin Elmer) using the HTSoft program.
# [2] = test system: bovine aortic endothelial cells (BAECs); assay: Hyperglycemia-induced intracellular ROS (CM-H2DCFDA) in cultured vascular endothelial cells; type: cell-based
# Protocol: Cell culture conditions. For reactive oxygen species (RO) measurement, bovine aortic endothelial cells (BAECs, passage 4-10) were plated in 96 well plates at 100,000 cells/well in Eagle's MEM containing 10% FBS, essential and nonessential amino acids, and antibiotics. Cells were incubated with either 5 mM glucose, 30 mM glucose, 30 mM glucose plus 10 nM GLP-1 (7-36), 30 mM glucose plus 10 nM GLP-1 (7-36), 30 mM glucose plus 10 nM GLP-1 (7-36) plus 10 μM pyrrolidide (a DPP IV inhibitor), 30 mM glucose plus 10 nM GLP-1 (7-36) plus 10 μM pyrrolidide and 100 μM phosphoramidon (a neutral endopeptidase 24.11 inhibitor), and 30 mM glucose plus GLP-1 (9-36) plus 10 nM exendin 9-39, a blocker of the GLP-1 (7-36) receptor. The pyrrolidide, phosphoramidon, and exendin 9-39 were each added to the cells four hours before the addition of the peptides. The ROS measurements were performed 24 hrs later.
# Intracellular reactive oxygen species measurements. The intracellular formation of reactive oxygen species was detected using the fluorescent probe CM-H2DCFDA (Molecular Probes). Cells (1×10^5 ml^−1) were loaded with 10 μM CM-H2DCFDDA, incubated for 45 min at 37° C., and analysed in an HTS 7000 Bio Assay Fluorescent Plate Reader (Perkin Elmer) using the HTSoft program. ROS production was determined from an H2O2 standard curve (10-200 nmol ml^−1).
# [3] = test system: endothelial nitric oxide synthase (eNOS); assay: eNOS activity ([3H]L-arginine to [3H]L-citrulline) in cultured vascular endothelial cells; type: cell-based, bovine; conditions: BAECs
# Protocol: Cell-culture conditions. For measurement of endothelial nitric oxide activity (eNOS), bovine aortic endothelial cells (BAECs, passage 4-10) were plated in 24 well plates at 200,000 cells /well in Eagle's MEM containing 10% FBS, essential and nonessential amino acids, and antibiotics. Cells were incubated with either 5 mM glucose, 30 mM glucose, 30 mM glucose plus 10 nM GLP-1 (7-36), 30 mM glucose plus 10 nM GLP-1 (7-36) plus 10 μM pyrrolidide (a DPP IV inhibitor) (not shown in FIG. 2), 30 mM glucose plus 10 nM GLP-1 (7-36) plus 10 μM pyrrolidide and 100 μM phosphoramidon (a neutral endopeptidase 24.11 inhibitor), 30 mM glucose+GLP-1 (9-36), and 30 mM glucose plus GLP-1 (9-36) plus 10 nM exendin 9-39, a blocker of the GLP-1 (7-36) receptor. The pyrrolidide, phosphoramidon, and exendin 9-39 were each added to the cells four hours before the addition of the peptides. eNOS activity measurements were performed 48 hrs later. Measurement of eNOS activity. eNOS activity in cells was determined by first incubating cells in L-arginine-deficient, serum-free MEM media for 6 hours. […] The eluate was collected in glass scintillation vials for [^3H]L-citrulline quantitation by liquid scintillation spectroscopy.
# hepatocytes = type: cell-based
# Protocol: An experiment similar to that described in Example 1 was performed, using hepatocytes rather than endothelial cells.
# rat hepatocytes = assay: Gluconeogenesis (glucose production) in isolated rat liver cells; type: cell-based; conditions: liver cells of non-diabetic control strain rats, 1000 pM insulin without GLP-1(9-36), 24 hours
# Protocol: Liver cells were isolated from non-diabetic control strain rats and from SDF rats. Single-cell suspensions of hepatocytes were obtained from perfusions using the procedure of Berry and Friend (1969) and the perfusion mixture of […] et al. (1979). The cells were plated on tissue culture plastic for 6 hours at a density of 2×10^5 cells per well in a 24-well culture plate that was pre-coated with rat-tail collagen I. During plating, cells were cultured in RPMI 1640 medium supplemented with 10% FBS, penicillin/streptomycin, 10 μg/ml insulin and 10 μM dexamethasone. After allowing for adherence, the media was changed to RPMI with 5 mM glucose, 0.4% FCS, and no insulin or dexamethasone. The cells were allowed to equilibrate overnight in this low-glucose media. The following morning this media was refreshed, insulin alone, or insulin and GLP-1(9-36) were added and treatment lasted another 24 hours. After stimulation, glucose production was measured by incubating the cells for 6 hours in glucose-free RPMI containing 5 mM each of alanine, valine, glycine, pyruvate and lactate. Glucose was subsequently measured with a Trinder assay (Sigma). Averages were obtained of 4 independent measurements.
molecule,measurement,setting,value
exendin 9-39 [e9-39],effect of GLP-1R antagonist on ability of GLP-1 degradation products to prevent glucose-induced ROS,"[1]; 12 mM glucose, GLP-1 (9-36 NH2) plus receptor blocker",no effect
same,effect of GLP-1 receptor blockade on inhibition of hyperglycemia-induced ROS by GLP-1 (9-36),[2]; 30 mM glucose plus GLP-1 (9-36) plus 10 nM exendin 9-39,no effect
same,effect of GLP-1 receptor blockade on GLP-1 (9-36) protection of eNOS activity,"[3]; 30 mM glucose plus GLP-1 (9-36) plus 10 nM exendin 9-39 (FIG. 2, bar 6)",no effect
CC[C@H](C)[C@H](NC(=O)[C@H](Cc1ccccc1)NC(=O)[C@H](CCC(=O)O)NC(=O)[C@H](CCCCN)NC(=O)[C@H](C)NC(=O)[C@H](C)NC(=O)[C@H](CCC(N)=O)NC(=O)CNC(=O)[C@H](CCC(=O)O)NC(=O)[C@H](CC(C)C)NC(=O)[C@H](Cc1ccc(O)cc1)NC(=O)[C@H](CO)NC(=O)[C@H](CO)NC(=O)[C@@H](NC(=O)[C@H](CC(=O)O)NC(=O)[C@H](CO)NC(=O)[C@@H](NC(=O)[C@H](Cc1ccccc1)NC(=O)[C@@H](NC(=O)CNC(=O)[C@@H](N)CCC(=O)O)[C@@H](C)O)[C@@H](C)O)C(C)C)C(=O)N[C@@H](C)C(=O)N[C@@H](Cc1c[nH]c2ccccc12)C(=O)N[C@@H](CC(C)C)C(=O)N[C@H](C(=O)N[C@@H](CCCCN)C(=O)NCC(=O)N[C@@H](CCCNC(=N)N)C(N)=O)C(C)C [GLP-1 (9-36)],hyperglycemia-induced ROS formation in hepatocytes,hepatocytes,inhibited
"GLP-1 (7-36) (HAEGTFTSDVSSYLEGQAAKEFIAWLVKGR-NH2; UniProt P01275 98-127, looked up, fragment)",high glucose-induced ROS in the presence of DPP-4 and neutral endopeptidase 24.11 inhibitors,"[1]; 12 mM glucose, 2 hrs, with protease inhibitors",no effect
same,effect of 100-fold excess bioactive GLP-1 on ability of GLP-1 [9-36amide] to prevent nutrient-induced ROS,[1]; GLP-1 (9-36 NH2) with 100× GLP-1 (7-36 NH2) and both DPPIV and NEP inhibitors,did not affect
same,hyperglycemia-induced ROS production when GLP-1 degradation is blocked,"[2]; 30 mM glucose, 10 nM peptide plus 10 μM pyrrolidide (DPP IV inhibitor) with or without 100 μM phosphoramidon (FIG. 1, bars 4 and 5)",no effect
same,hyperglycemia-induced ROS production,"[2]; 30 mM glucose, peptide alone, ROS measured 24 hrs later (FIG. 1)",completely prevents
same,hyperglycemia-induced decrease in eNOS activity when GLP-1 (7-36) degradation is blocked,"[3]; 30 mM glucose, 10 nM peptide plus 10 μM pyrrolidide and 100 μM phosphoramidon (FIG. 2, bar 4)",no effect
insulin,"gluconeogenesis, % of control levels",rat hepatocytes,46 % of control levels
